US9163256B2, “Mutant receptors and their use in a nuclear receptor-based inducible gene expression system” (priority 2004, dated 2015)

Legend:
CfEcR-DEF mutant A110P = CfEcR-DEF mutant A110P (Choristoneura fumiferana, UniProt O77255, A393P); assay: cell-based; settings: mutant A110P
Description: (§1) This construct was prepared in the same way as in switch 1.1 above except wild-type CfEcR-DEF was replaced with mutant CfEcR-DEF comprising a ligand binding domain comprising a substitution mutation selected from Table 1 below.
(§2) DNAs were transfected into mouse NIH3T3 cells (ATCC) as follows. Standard methods for culture and maintenance of the cells were followed. Cells were harvested and plated 96-well plates at 2,500 cells per well, in 50 μL of growth medium containing 10% fetal bovine serum (FBS). Twenty-four hours later, the cells were treated with 35 μL of serum-free growth medium containing either dimethylsulfoxide (DMSO; control) or a DMSO solution of ligand. The cells were then transfected using Superfect (Qiagen Inc.) transfection reagent. For each well, 0.625 μL of Superfect was mixed with 14.2 μL of serum-free growth medium. 0.16 μg of reporter construct and 0.04 μg of each receptor construct were added to the transfection reagent mix. The contents of the transfection mix were mixed in a vortex mixer and let stand at room temperature for 30 minutes. At the end of incubation, 15 μL of transfection mix was added to the cells. The cells were maintained at 37° C. and 5% CO2 for 48 hours in 5% FBS.
(§3) Reporter Assays: Cells were harvested 40 hours after adding ligands. 125 μL of passive lysis buffer (part of Dual-Luciferase reporter assay system from Promega Corporation) were added to each well of the […] plate. The plates were placed on a rotary shaker for 15 minutes. Twenty μL of lysate were assayed. Luciferase activity was measured using Dual-Luciferase reporter assay system from Promega Corporation following the manufacturer's instructions. Fold induction (FI) activities were calculated by dividing relative light units (“RLU”) in ligand treated cells with RLU in DMSO treated cells (untreated control).

CfEcR-DEF mutant F109N = CfEcR-DEF mutant F109N (Choristoneura fumiferana, UniProt O77255, F392N); assay: cell-based; settings: mutant F109N
Description: as §1, §2, §3

CfEcR-DEF mutant F109W = CfEcR-DEF mutant F109W (Choristoneura fumiferana, UniProt O77255, F392W); assay: cell-based; settings: mutant F109W
Description: as §1, §2, §3

CfEcR-DEF mutant I51L = CfEcR-DEF mutant I51L (Choristoneura fumiferana, UniProt O77255, I334L); assay: cell-based; settings: mutant I51L
Description: as §1, §2, §3

CfEcR-DEF mutant L132V = CfEcR-DEF mutant L132V (Choristoneura fumiferana, UniProt O77255, L415V); assay: cell-based; settings: mutant L132V
Description: as §1, §2, §3

CfEcR-DEF mutant M125C = CfEcR-DEF mutant M125C (Choristoneura fumiferana, UniProt O77255, M408C); assay: cell-based; settings: mutant M125C
Description: as §1, §2, §3

CfEcR-DEF mutant M125E = CfEcR-DEF mutant M125E (Choristoneura fumiferana, UniProt O77255, M408E); assay: cell-based; settings: mutant M125E
Description: as §1, §2, §3

CfEcR-DEF mutant M125L = CfEcR-DEF mutant M125L (Choristoneura fumiferana, UniProt O77255, M408L); assay: cell-based; settings: mutant M125L
Description: as §1, §2, §3

CfEcR-DEF mutant M125P = CfEcR-DEF mutant M125P (Choristoneura fumiferana, UniProt O77255, M408P); assay: cell-based; settings: mutant M125P
Description: as §1, §2, §3

CfEcR-DEF mutant R95H = CfEcR-DEF mutant R95H (Choristoneura fumiferana, UniProt O77255, R378H); assay: cell-based; settings: mutant R95H
Description: as §1, §2, §3

CfEcR-DEF mutant R95W = CfEcR-DEF mutant R95W (Choristoneura fumiferana, UniProt O77255, R378W); assay: cell-based; settings: mutant R95W
Description: as §1, §2, §3

CfEcR-DEF mutant T52L = CfEcR-DEF mutant T52L (Choristoneura fumiferana, UniProt O77255, T335L); assay: cell-based; settings: mutant T52L
Description: as §1, §2, §3

[1] = biological target: CfEcR-DEF mutant V128F/A110P (Choristoneura fumiferana, UniProt O77255, A393P/V411F); assay: cell-based; settings: mutant V128F/A110P
Description: as §1, §2, §3

CfEcR-DEF mutant V96W = CfEcR-DEF mutant V96W (Choristoneura fumiferana, UniProt O77255, V379W); assay: cell-based; settings: mutant V96W
Description: as §1, §2, §3

CfEcR-DEF mutant W238P = CfEcR-DEF mutant W238P (Choristoneura fumiferana, UniProt O77255, W521P); assay: cell-based; settings: mutant W238P
Description: as §1, §2, §3

CfEcR-DEF mutant W238Y = CfEcR-DEF mutant W238Y (Choristoneura fumiferana, UniProt O77255, W521Y); assay: cell-based; settings: mutant W238Y
Description: as §1, §2, §3

CfEcR-DEF mutant A110N = CfEcR-DEF mutant A110N (Choristoneura fumiferana, UniProt O77255, A393N); assay: cell-based; settings: mutant A110N
Description: as §1, §2, §3

CfEcR-DEF mutant F48N = CfEcR-DEF mutant F48N (Choristoneura fumiferana, UniProt O77255, F331N); assay: GAL4-driven luciferase reporter assay in NIH3T3 cells; assay type: cell-based; settings: mutant F48N
Description: as §1, §2, §3

CfEcR-DEF mutant M125W = CfEcR-DEF mutant M125W (Choristoneura fumiferana, UniProt O77255, M408W); assay: as above; assay type: cell-based; settings: mutant M125W
Description: as §1, §2, §3

[2] = biological target: CfEcR-DEF mutant T52V/A110P (Choristoneura fumiferana, UniProt O77255, A393P/T335V); assay: as above; assay type: cell-based; settings: mutant T52V/A110P
Description: as §1, §2, §3

[3] = biological target: CfEcR-DEF mutant V107I/Y127E/T52V (Choristoneura fumiferana, UniProt O77255, T335V/V390I/Y410E); assay: as above; assay type: cell-based; settings: mutant V107I/Y127E/T52V
Description: as §1, §2, §3

[4] = relative to max fold induction of GS-E ligand

Chain of CfEcR-DEF mutant V128F/A110P (P28702 299-449, stated change not applied): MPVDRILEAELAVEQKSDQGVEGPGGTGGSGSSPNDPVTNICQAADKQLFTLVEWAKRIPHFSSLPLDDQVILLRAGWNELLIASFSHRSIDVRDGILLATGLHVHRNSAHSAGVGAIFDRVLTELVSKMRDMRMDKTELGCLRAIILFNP
Chain of CfEcR-DEF mutant V128F/A110P (O77255 entry or part of it A393P/V411F): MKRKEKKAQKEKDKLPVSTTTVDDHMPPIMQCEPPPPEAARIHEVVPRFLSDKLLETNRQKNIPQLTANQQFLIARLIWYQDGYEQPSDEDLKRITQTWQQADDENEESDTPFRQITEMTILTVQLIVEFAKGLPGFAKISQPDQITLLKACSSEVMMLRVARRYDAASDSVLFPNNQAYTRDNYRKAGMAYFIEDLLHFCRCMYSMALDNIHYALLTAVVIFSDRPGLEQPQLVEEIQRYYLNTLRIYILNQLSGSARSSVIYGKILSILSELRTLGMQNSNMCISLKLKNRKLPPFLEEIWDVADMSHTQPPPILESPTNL
Chain of CfEcR-DEF mutant F48N (O77255 entry or part of it F331N): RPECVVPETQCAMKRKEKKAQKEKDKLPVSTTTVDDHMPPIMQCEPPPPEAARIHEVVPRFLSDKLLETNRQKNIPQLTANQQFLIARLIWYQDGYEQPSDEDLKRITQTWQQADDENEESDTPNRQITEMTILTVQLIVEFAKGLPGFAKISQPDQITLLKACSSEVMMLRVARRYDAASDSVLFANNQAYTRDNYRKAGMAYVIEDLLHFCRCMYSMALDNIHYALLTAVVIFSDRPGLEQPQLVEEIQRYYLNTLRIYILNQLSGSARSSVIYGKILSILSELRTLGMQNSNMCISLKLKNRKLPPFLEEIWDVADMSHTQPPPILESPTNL
Chain of CfEcR-DEF mutant F48N (P28702 299-449, further chain): as the sequence (P28702 299-449, stated change not applied) above
Chain of CfEcR-DEF mutant T52L (P28702 298-449): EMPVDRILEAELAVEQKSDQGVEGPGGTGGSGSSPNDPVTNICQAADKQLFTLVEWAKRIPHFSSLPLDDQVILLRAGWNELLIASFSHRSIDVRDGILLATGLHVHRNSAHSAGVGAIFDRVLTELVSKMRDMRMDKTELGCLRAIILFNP
Chain of CfEcR-DEF mutant T52L (O77255 entry or part of it T335L): as the sequence (O77255 entry or part of it F331N) above, with N125F, T129L counted along it
Chain of CfEcR-DEF mutant L132V (O77255 entry or part of it L415V): as the sequence (O77255 entry or part of it F331N) above, with N125F, L209V counted along it
Chain of CfEcR-DEF mutant L132V (P28702 298-449, further chain): as the sequence (P28702 298-449) above
Chain of CfEcR-DEF mutant A110N (O77255 entry or part of it A393N): as the sequence (O77255 entry or part of it F331N) above, with N125F, A187N counted along it
Chain of CfEcR-DEF mutant A110N (P28702 299-449, stated change not applied, further chain): as the sequence (P28702 299-449, stated change not applied) above
Chain of CfEcR-DEF mutant M125E (O77255 entry or part of it M408E): as the sequence (O77255 entry or part of it F331N) above, with N125F, M202E counted along it
Chain of CfEcR-DEF mutant M125E (P28702 299-449, further chain): as the sequence (P28702 299-449, stated change not applied) above
Chain of CfEcR-DEF mutant T52V/A110P (O77255 entry or part of it T335V/A393P): as the sequence (O77255 entry or part of it A393P/V411F) above, with T117V, F193V counted along it
Chain of CfEcR-DEF mutant T52V/A110P (P28702 299-449, stated change not applied, further chain): as the sequence (P28702 299-449, stated change not applied) above
Chain of CfEcR-DEF mutant F109N (P28702 299-449): as the sequence (P28702 299-449, stated change not applied) above
Chain of CfEcR-DEF mutant F109N (O77255 entry or part of it F392N): as the sequence (O77255 entry or part of it F331N) above, with N125F, F186N counted along it
Chain of CfEcR-DEF mutant W238Y (P28702 299-449): as the sequence (P28702 299-449, stated change not applied) above
Chain of CfEcR-DEF mutant W238Y (O77255 entry or part of it W521Y): as the sequence (O77255 entry or part of it A393P/V411F) above, with P175A, F193V, W303Y counted along it

**Q.** `CC(C)(O)CC[C@@H](O)[C@](C)(O)[C@H]1CC[C@@]2(O)C3=CC(=O)[C@@H]4C[C@@H](O)[C@@H](O)C[C@]4(C)[C@H]3CC[C@]12C` [20E, 20-hydroxyecdysone] was tested. Which EC50 (CfEcR-DEF mutant A110P; read-out: EC50) did it give?
**A.** > 33 µM

**Q.** And the “Rel Max FI” value (CfEcR-DEF mutant A110P; [4])?
**A.** 0

**Q.** What about the “Rel Max FI” value (CfEcR-DEF mutant F109N) of the same molecule?
**A.** 0

**Q.** What about the EC50 (CfEcR-DEF mutant F109N; read-out: EC50) of the same molecule?
**A.** > 33 µM

**Q.** What about the EC50 (CfEcR-DEF mutant F109W; read-out: EC50) of the same molecule?
**A.** > 33 µM

**Q.** And the “Rel Max FI” value (CfEcR-DEF mutant F109W; [4])?
**A.** 0

**Q.** And the “Rel Max FI” value (CfEcR-DEF mutant I51L)?
**A.** 0

**Q.** What about the EC50 (CfEcR-DEF mutant I51L; read-out: EC50) of the same molecule?
**A.** > 33 µM

**Q.** What about the EC50 (CfEcR-DEF mutant L132V; read-out: EC50) of the same molecule?
**A.** > 33 µM

**Q.** What about the “Rel Max FI” value (CfEcR-DEF mutant L132V; [4]) of the same molecule?
**A.** 0

**Q.** And the “Rel Max FI” value (CfEcR-DEF mutant M125C)?
**A.** 0.22

**Q.** And the “Rel Max FI” value (CfEcR-DEF mutant M125E)?
**A.** 0

**Q.** What about the EC50 (CfEcR-DEF mutant M125E; read-out: EC50) of the same molecule?
**A.** > 33 µM

**Q.** What about the “Rel Max FI” value (CfEcR-DEF mutant M125L) of the same molecule?
**A.** 0

**Q.** What about the EC50 (CfEcR-DEF mutant M125L; read-out: EC50) of the same molecule?
**A.** > 33 µM

**Q.** What about the “Rel Max FI” value (CfEcR-DEF mutant M125P) of the same molecule?
**A.** 1.29

**Q.** And the EC50 (CfEcR-DEF mutant M125P; read-out: EC50)?
**A.** > 33 µM

**Q.** And the “Rel Max FI” value (CfEcR-DEF mutant R95H)?
**A.** 0

**Q.** And the EC50 (CfEcR-DEF mutant R95H; read-out: EC50)?
**A.** > 33 µM

**Q.** And the “Rel Max FI” value (CfEcR-DEF mutant R95W)?
**A.** 0

**Q.** What about the EC50 (CfEcR-DEF mutant R95W; read-out: EC50) of the same molecule?
**A.** > 33 µM

**Q.** And the EC50 (CfEcR-DEF mutant T52L; read-out: EC50)?
**A.** > 33 µM

**Q.** And the “Rel Max FI” value (CfEcR-DEF mutant T52L; [4])?
**A.** 0

**Q.** And the “Rel Max FI” value [1]?
**A.** 0

**Q.** And the EC50 ([1]; read-out: EC50)?
**A.** > 33 µM

**Q.** What about the “Rel Max FI” value [1, 4] of the same molecule?
**A.** 0.00

**Q.** And the “Rel Max FI” value (CfEcR-DEF mutant V96W)?
**A.** 0

**Q.** And the EC50 (CfEcR-DEF mutant V96W; read-out: EC50)?
**A.** > 33 µM

**Q.** And the EC50 (CfEcR-DEF mutant W238P; read-out: EC50)?
**A.** > 33 µM

**Q.** And the “Rel Max FI” value (CfEcR-DEF mutant W238P; [4])?
**A.** 0

**Q.** And the “Rel Max FI” value (CfEcR-DEF mutant W238Y)?
**A.** 0.18

**Q.** And the EC50 (CfEcR-DEF mutant W238Y; read-out: EC50)?
**A.** > 33 µM

**Q.** And the EC50 (CfEcR-DEF mutant A110N; read-out: EC50)?
**A.** > 33 µM

**Q.** What about the “Rel Max FI” value (CfEcR-DEF mutant A110N; [4]) of the same molecule?
**A.** 0

**Q.** And the “Rel Max FI” value (CfEcR-DEF mutant F48N)?
**A.** 0

**Q.** And the EC50 (CfEcR-DEF mutant F48N; read-out: EC50)?
**A.** > 33 µM

**Q.** What about the “Rel Max FI” value (CfEcR-DEF mutant M125W) of the same molecule?
**A.** 0

**Q.** And the EC50 (CfEcR-DEF mutant M125W; read-out: EC50)?
**A.** > 33 µM

**Q.** What about the EC50 ([2]; read-out: EC50) of the same molecule?
**A.** > 33 µM

**Q.** And the “Rel Max FI” value [2, 4]?
**A.** 0

**Q.** And the EC50 ([3]; read-out: EC50)?
**A.** > 33 µM

**Q.** What about the “Rel Max FI” value [3, 4] of the same molecule?
**A.** 0.04
